Where two headings read alike, the source gives them in different places.
Target: T1, EBP-Ig (N-terminal 225 amino acids of the human EPO receptor joined to an Ig heavy chain) (Homo sapiens, UniProt P19235)
T1 construct: Ig heavy chain (fusion partner); made in house; host or cells: NSO cells (secreted into conditioned media)
T1 sequence (P19235 25-250 limits assumed): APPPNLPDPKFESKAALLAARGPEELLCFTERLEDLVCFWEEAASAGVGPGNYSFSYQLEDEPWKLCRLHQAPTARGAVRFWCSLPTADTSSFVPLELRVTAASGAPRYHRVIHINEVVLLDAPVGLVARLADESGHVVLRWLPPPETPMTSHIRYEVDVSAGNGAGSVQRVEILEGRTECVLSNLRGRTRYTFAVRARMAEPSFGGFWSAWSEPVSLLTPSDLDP
Experiment: Inhibition of [125I]EPO binding to immobilized EBP-Ig (EPO binding protein-Ig), scintillation Flash plate competition assay
Settings: for IC30 μM (Inhibition of EPO binding to EBP-Ig): 0–500 μM test compound

Row | SMILES | EPO/EBP-Ig % inh @ 50 μM (50 μM compound, Table 18A) | EPO/EBP-Ig % inh @ 50 μM (50 μM compound, Table 19A) | other results
1 | O=C(O)C(F)(F)F.O=C(O)[C@H](CO)N(C/C=C/c1cccc(Oc2ccc(Cl)c(Cl)c2)c1)C/C=C/c1cccc(Oc2ccc(Cl)c(Cl)c2)c1 [compound 307] |  |  | EPO/EBP-Ig % inh @ 50 μM (50 μM compound, Table 16A): 25%
2 | O=C(O)C(F)(F)F.O=C(O)[C@H](CO)N(C/C=C/c1cccc(Oc2cccc(C(F)(F)F)c2)c1)C/C=C/c1cccc(Oc2cccc(C(F)(F)F)c2)c1 [compound 308] |  |  | EPO/EBP-Ig % inh @ 50 μM (50 μM compound, Table 16A): 25%
3 | CC(C)(C)c1ccc(Oc2cccc(/C=C/CN(C/C=C/c3cccc(Oc4ccc(C(C)(C)C)cc4)c3)[C@@H](CO)C(=O)O)c2)cc1.O=C(O)C(F)(F)F [compound 309] |  |  | EPO/EBP-Ig % inh @ 50 μM (50 μM compound, Table 16A): 13%
4 | CC(=O)O.COC(=O)[C@H](CO)N(C/C=C/c1ccccc1)C/C=C/c1ccccc1 [compound 310] |  |  | EPO/EBP-Ig % inh @ 50 μM (50 μM compound, Table 16A): 34%
5 | CC(C)(C)OC(=O)CN(C/C=C/c1cccc(Oc2ccccc2)c1)C/C=C/c1cccc(Oc2ccccc2)c1 [compound 311] |  |  | EPO/EBP-Ig % inh @ 50 μM (50 μM compound, Table 17A): 5.3%
6 | O=C(O)CN(C/C=C/c1cccc(Oc2ccccc2)c1)C/C=C/c1cccc(Oc2ccccc2)c1 [compound 312] |  |  | IC30 μM (Inhibition of EPO binding to EBP-Ig) (0.5 nM [125I]EPO): 10 µM; inhibition at 50 µM (read-out: % inh @ 50 μM (Inhibition of EPO binding to EBP-Ig)): 45%; inhibition at 50 µM (read-out: EPO/EBP-Ig % inh @ 50 μM, 50 μM compound, Table 17A): 45%; IC50 (read-out: IC50, μM (Inhibition of EPO binding to EBP-Ig), 0.5 nM [125I]EPO, concentration reducing corrected total binding to 50%): 85 µM
7 | O=C(NCCCC[C@H](NC/C=C/c1ccc(C(F)(F)F)cc1)C(=O)O)OCc1ccccc1Cl.O=C(O)C(F)(F)F [compound 313] | 28% |  | 
8 | COC(=O)[C@H](CCCCN)NC/C=C/c1ccc(C(=O)O)cc1 [compound 314] | 12% |  | 
9 | COC(=O)[C@H](CCCCNC(=O)OC(C)(C)C)NC/C=C/c1cccc(Oc2ccccc2)c1 [compound 316] | 20% |  | 
10 | COC(=O)[C@H](CCCCNC(=O)OC(C)(C)C)NC/C=C/c1cccc(Oc2ccc(C(C)(C)C)cc2)c1 [compound 317] | 13% |  | 
11 | COC(=O)[C@H](CCCCNC(=O)OCc1ccccc1)NC/C=C/c1ccccc1 [compound 318] | 14% |  | 
12 | COC(=O)[C@H](CCCCNC(=O)OCc1ccccc1)NC/C=C/c1ccc(OC)cc1 [compound 320] | 17% |  | 
13 | CC(=O)O.COC(=O)c1cccc(C=CCNC(CCCCNC(=O)OCc2ccccc2)C(=O)OC)c1 (centres unmarked) [compound 321] | 42% |  | IC30 μM (Inhibition of EPO binding to EBP-Ig) (0.5 nM [125I]EPO): 45 µM; % inh @ 50 μM (Inhibition of EPO binding to EBP-Ig) (50 μM test compound, 0.5 nM [125I]EPO, average % inhibition): 42%
14 | COC(=O)[C@H](CCCCNC(=O)OCc1ccccc1)NC/C=C/c1ccc(C(=O)O)cc1 [compound 323] | 6% |  | 
15 | COC(=O)[C@H](CCC(=O)O)NC/C=C/c1ccc(-c2ccccc2)cc1.O=C(O)C(F)(F)F [compound 327] |  | 11% | 
16 | COC(=O)[C@H](CCC(=O)O)NC/C=C/c1cccc(Oc2ccc(Cl)c(Cl)c2)c1.O=C(O)C(F)(F)F [compound 328] |  | 33% | 
17 | O=C(O)C(F)(F)F.O=C(O)CC[C@H](NC/C=C/c1ccc(-c2ccccc2)cc1)C(=O)O [compound 329] |  | 13% | 
18 | O=C(O)C(F)(F)F.O=C(O)CC[C@H](NC/C=C/c1cccc(Oc2cccc(C(F)(F)F)c2)c1)C(=O)O [compound 330] |  | 12% | 
19 | CC(C)(C)c1ccc(Oc2cccc(/C=C/CN[C@@H](CCC(=O)O)C(=O)O)c2)cc1.O=C(O)C(F)(F)F [compound 331] |  | 18% | 
20 | O=C(O)C(F)(F)F.O=C(O)CC[C@H](NC/C=C/c1cccc(Oc2ccc(Cl)c(Cl)c2)c1)C(=O)O [compound 332] |  | 17% | 
21 | COC(=O)[C@H](CCC(=O)OC(C)(C)C)NC/C=C/c1ccc2ccccc2c1 [compound 333] |  | 16% | 
22 | COC(=O)[C@H](CCC(=O)OC(C)(C)C)NC/C=C/c1ccc(-c2ccccc2)cc1 [compound 335] |  | 25% | 
23 | COC(=O)[C@H](CCC(=O)OC(C)(C)C)NC/C=C/c1cccc(Oc2ccc(Cl)c(Cl)c2)c1 [compound 336] |  | 32% | 
24 | CC(C)(C)OC(=O)CC[C@H](NC/C=C/c1cccc(Oc2cccc(C(F)(F)F)c2)c1)C(=O)OC(C)(C)C [compound 338] |  | 23% | 

Reference: patent US7153869B2, “Substituted amino acids as erythropoietin mimetics” (priority 1998, dated 2006)
